{
  "source": "paper PMC5007552",
  "about": "“The hVps34‐SGK3 pathway alleviates sustained PI3K/Akt inhibition by stimulating mTORC1 and tumour growth” (The EMBO Journal, 2016)",
  "system": "ZR-75-1 cells",
  "test": "NanoString human kinome mRNA quantification",
  "format": "cell-based",
  "text": "Human mRNAs were hybridised to NanoString human kinome and control code sets, then subjected to quantification using NanoString software. […] To permit data compaction, and simple kinome‐wide comparisons, the fold changes are log2 transformed. […] Cell pellets were resuspended at a concentration of ~6,500 cells/μl in RLT buffer (Qiagen). […] For total copy numbers, triplicate normalised count values were averaged, and to calculate fold induction, means were divided by triplicate mean values from matched DMSO controls. P‐values were calculated using unpaired t‐test (GraphPad Prism software) by employing treated and control count data for each kinase mRNA.",
  "note": "“And” between values parts separate entries of the source, which are not always exact repeats. Equal entries are not always repeated.",
  "data": [
    {"smiles": "NC1(c2ccc(-c3nc4ccn5c(=O)[nH]nc5c4cc3-c3ccccc3)cc2)CCC1", "note": "[MK-2206]", "values": [
      {"measurement": "Normalised counts HIPK1", "setting": "HIPK1 mRNA, single replicates", "value": "558.67 and 555.89 and 631.82"},
      {"measurement": "Average normalised counts HIPK2", "setting": "HIPK2 mRNA, average of 3 replicates", "value": 697.1},
      {"measurement": "Normalised counts HIPK2", "setting": "HIPK2 mRNA, single replicates", "value": "690.47 and 698.36 and 702.47"},
      {"measurement": "Average normalised counts HIPK3", "setting": "HIPK3 mRNA, average of 3 replicates", "value": 924.78},
      {"measurement": "Normalised counts HIPK3", "setting": "HIPK3 mRNA, single replicates", "value": "914.99 and 915.54 and 943.81"},
      {"measurement": "Average normalised counts HIPK4", "setting": "HIPK4 mRNA, average of 3 replicates", "value": 8.793},
      {"measurement": "Normalised counts HIPK4", "setting": "HIPK4 mRNA, single replicates", "value": "13.29 and 6.84 and 6.25"},
      {"measurement": "Average normalised counts HSPB8", "setting": "HSPB8 mRNA, average of 3 replicates", "value": 703.253},
      {"measurement": "Normalised counts HSPB8", "setting": "HSPB8 mRNA, single replicates", "value": "670.48 and 739.19 and 700.09"},
      {"measurement": "Average normalised counts HUNK", "setting": "HUNK mRNA, average of 3 replicates", "value": 120.407},
      {"measurement": "Normalised counts HUNK", "setting": "HUNK mRNA, single replicates", "value": "115.1 and 122.38 and 123.74"},
      {"measurement": "Average normalised counts HUS1", "setting": "HUS1 mRNA, average of 3 replicates", "value": 872.423},
      {"measurement": "Normalised counts HUS1", "setting": "HUS1 mRNA, single replicates", "value": "841.36 and 886.88 and 889.03"},
      {"measurement": "Average normalised counts IGF1R", "setting": "IGF1R mRNA, average of 3 replicates", "value": 2361.57},
      {"measurement": "Normalised counts IGF1R", "setting": "IGF1R mRNA, single replicates", "value": "2300.25 and 2376.77 and 2407.7"},
      {"measurement": "Average normalised counts IKBKB", "setting": "IKBKB mRNA, average of 3 replicates", "value": 768.703},
      {"measurement": "Normalised counts IKBKB", "setting": "IKBKB mRNA, single replicates", "value": "749.55 and 764.38 and 792.18"},
      {"measurement": "Average normalised counts IKBKE", "setting": "IKBKE mRNA, average of 3 replicates", "value": 224.477},
      {"measurement": "Normalised counts IKBKE", "setting": "IKBKE mRNA, single replicates", "value": "217.95 and 203.13"},
      {"measurement": "Average normalised counts ILK", "setting": "ILK mRNA, average of 3 replicates", "value": 435.073},
      {"measurement": "Normalised counts ILK", "setting": "ILK mRNA, single replicates", "value": "419.6 and 422.1 and 463.52"},
      {"measurement": "Average normalised counts INSR", "setting": "INSR mRNA, average of 3 replicates", "value": 414.107},
      {"measurement": "Normalised counts INSR", "setting": "INSR mRNA, single replicates", "value": "395.06 and 455.98 and 391.28"},
      {"measurement": "Average normalised counts INSRR", "setting": "INSRR mRNA, average of 3 replicates", "value": 3.12},
      {"measurement": "Normalised counts INSRR", "setting": "INSRR mRNA, single replicates", "value": "2.39 and 5.97 and 1"},
      {"measurement": "Average normalised counts IRAK1", "setting": "IRAK1 mRNA, average of 3 replicates", "value": 1144.48},
      {"measurement": "Normalised counts IRAK1", "setting": "IRAK1 mRNA, single replicates", "value": "1168.59 and 1134.47 and 1130.37"},
      {"measurement": "Average normalised counts IRAK2", "setting": "IRAK2 mRNA, average of 3 replicates", "value": 17.2833},
      {"measurement": "Normalised counts IRAK2", "setting": "IRAK2 mRNA, single replicates", "value": "12.38 and 18.13 and 21.34"},
      {"measurement": "Average normalised counts IRAK3", "setting": "IRAK3 mRNA, average of 3 replicates", "value": 4.617},
      {"measurement": "Normalised counts IRAK3", "setting": "IRAK3 mRNA, single replicates", "value": "3.29 and 5.1 and 5.46"},
      {"measurement": "Average normalised counts IRAK4", "setting": "IRAK4 mRNA, average of 3 replicates", "value": 506.37},
      {"measurement": "Normalised counts IRAK4", "setting": "IRAK4 mRNA, single replicates", "value": "495.95 and 488.99 and 534.17"},
      {"measurement": "Average normalised counts ITK", "setting": "ITK mRNA, average of 3 replicates", "value": 1.763},
      {"measurement": "Normalised counts ITK", "setting": "ITK mRNA, single replicates", "value": "3.29 and 1 (2×)"},
      {"measurement": "Average normalised counts JAK1", "setting": "JAK1 mRNA, average of 3 replicates", "value": 943.323},
      {"measurement": "Normalised counts JAK1", "setting": "JAK1 mRNA, single replicates", "value": "967.71 and 921.63 and 940.63"},
      {"measurement": "Average normalised counts JAK2", "setting": "JAK2 mRNA, average of 3 replicates", "value": 378.063},
      {"measurement": "Normalised counts JAK2", "setting": "JAK2 mRNA, single replicates", "value": "379.61 and 384.74 and 369.84"},
      {"measurement": "Average normalised counts JAK3", "setting": "JAK3 mRNA, average of 3 replicates", "value": 2.113},
      {"measurement": "Normalised counts JAK3", "setting": "JAK3 mRNA, single replicates", "value": "1.48 and 3.37 and 1.49"},
      {"measurement": "Average normalised counts KALRN", "setting": "KALRN mRNA, average of 3 replicates", "value": 1},
      {"measurement": "Normalised counts KALRN", "setting": "KALRN mRNA, single replicates", "value": 1},
      {"measurement": "Average normalised counts KDR", "setting": "KDR mRNA, average of 3 replicates", "value": 1.163},
      {"measurement": "Normalised counts KDR", "setting": "KDR mRNA, single replicates", "value": "1 (2×) and 1.49"},
      {"measurement": "Average normalised counts KIAA1804", "setting": "KIAA1804 mRNA, average of 3 replicates", "value": 209.647},
      {"measurement": "Normalised counts KIAA1804", "setting": "KIAA1804 mRNA, single replicates", "value": "226.9 and 199.7 and 202.34"},
      {"measurement": "Average normalised counts KIT", "setting": "KIT mRNA, average of 3 replicates", "value": 1},
      {"measurement": "Normalised counts KIT", "setting": "KIT mRNA, single replicates", "value": 1},
      {"measurement": "Average normalised counts KSR1", "setting": "KSR1 mRNA, average of 3 replicates", "value": 15.5767},
      {"measurement": "Normalised counts KSR1", "setting": "KSR1 mRNA, single replicates", "value": "14.2 and 11.19 and 21.34"},
      {"measurement": "Average normalised counts KSR2", "setting": "KSR2 mRNA, average of 3 replicates", "value": 58.27},
      {"measurement": "Normalised counts KSR2", "setting": "KSR2 mRNA, single replicates", "value": "61.47 and 55.49 and 57.85"},
      {"measurement": "Average normalised counts LATS1", "setting": "LATS1 mRNA, average of 3 replicates", "value": 1079.17},
      {"measurement": "Normalised counts LATS1", "setting": "LATS1 mRNA, single replicates", "value": "1068.6 and 1080.61 and 1088.29"},
      {"measurement": "Average normalised counts LATS2", "setting": "LATS2 mRNA, average of 3 replicates", "value": 223.537},
      {"measurement": "Normalised counts LATS2", "setting": "LATS2 mRNA, single replicates", "value": "222.36 and 229.24 and 219.01"},
      {"measurement": "Average normalised counts LCK", "setting": "LCK mRNA, average of 3 replicates", "value": 1},
      {"measurement": "Normalised counts LCK", "setting": "LCK mRNA, single replicates", "value": 1},
      {"measurement": "Average normalised counts LIMK1", "setting": "LIMK1 mRNA, average of 3 replicates", "value": 487.24},
      {"measurement": "Normalised counts LIMK1", "setting": "LIMK1 mRNA, single replicates", "value": "499.59 and 471.62 and 490.51"},
      {"measurement": "Average normalised counts LMTK2", "setting": "LMTK2 mRNA, average of 3 replicates", "value": 633.213},
      {"measurement": "Normalised counts LMTK2", "setting": "LMTK2 mRNA, single replicates", "value": "615.03 and 621.04 and 663.57"},
      {"measurement": "Average normalised counts LMTK3", "setting": "LMTK3 mRNA, average of 3 replicates", "value": 14.4067},
      {"measurement": "Normalised counts LMTK3", "setting": "LMTK3 mRNA, single replicates", "value": "19.66 and 8.58 and 14.98"},
      {"measurement": "Average normalised counts LRRK1", "setting": "LRRK1 mRNA, average of 3 replicates", "value": 204.153},
      {"measurement": "Normalised counts LRRK1", "setting": "LRRK1 mRNA, single replicates", "value": "193.27 and 214.47 and 204.72"},
      {"measurement": "Average normalised counts LRRK2", "setting": "LRRK2 mRNA, average of 3 replicates", "value": 465.12},
      {"measurement": "Normalised counts LRRK2", "setting": "LRRK2 mRNA, single replicates", "value": "461.41 and 439.47 and 494.48"},
      {"measurement": "Average normalised counts LTK", "setting": "LTK mRNA, average of 3 replicates", "value": 1},
      {"measurement": "Normalised counts LTK", "setting": "LTK mRNA, single replicates", "value": 1},
      {"measurement": "Average normalised counts LYN", "setting": "LYN mRNA, average of 3 replicates", "value": 10.41},
      {"measurement": "Normalised counts LYN", "setting": "LYN mRNA, single replicates", "value": "11.48 and 10.32 and 9.43"},
      {"measurement": "MAK Normalised counts Average", "setting": "MAK mRNA, average of 3", "value": 7.77},
      {"measurement": "MAK Normalised counts (single replicates)", "setting": "MAK mRNA, replicates 1-3", "value": "7.84 and 6.84 and 8.63"},
      {"measurement": "MAP2K1 Normalised counts Average", "setting": "MAP2K1 mRNA, average of 3", "value": 1481.58},
      {"measurement": "MAP2K1 Normalised counts (single replicates)", "setting": "MAP2K1 mRNA, replicates 1-3", "value": "1469.45 and 1465.46 and 1509.84"},
      {"measurement": "MAP2K2 Normalised counts Average", "setting": "MAP2K2 mRNA, average of 3", "value": 2403.01},
      {"measurement": "MAP2K2 Normalised counts (single replicates)", "setting": "MAP2K2 mRNA, replicates 1-3", "value": "2394.14 and 2328.31"},
      {"measurement": "MAP2K3 Normalised counts Average", "setting": "MAP2K3 mRNA, average of 3", "value": 410.613},
      {"measurement": "MAP2K3 Normalised counts (single replicates)", "setting": "MAP2K3 mRNA, replicates 1-3", "value": "415.06 and 378.66 and 438.12"},
      {"measurement": "MAP2K4 Normalised counts Average", "setting": "MAP2K4 mRNA, average of 3", "value": 708.25},
      {"measurement": "MAP2K4 Normalised counts (single replicates)", "setting": "MAP2K4 mRNA, replicates 1-3", "value": "670.48 and 728.77 and 725.5"},
      {"measurement": "MAP2K5 Normalised counts Average", "setting": "MAP2K5 mRNA, average of 3", "value": 322.173},
      {"measurement": "MAP2K5 Normalised counts (single replicates)", "setting": "MAP2K5 mRNA, replicates 1-3", "value": "317.8 and 316.98 and 331.74"},
      {"measurement": "MAP2K6 Normalised counts Average", "setting": "MAP2K6 mRNA, average of 3", "value": 279.153}
    ]}
  ]
}
